Measurements from ChEMBL document CHEMBL5518176, “Identification of novel aminopyrimidine derivatives for the treatment of mutant NSCLC” (Eur J Med Chem, 2024).
Calls of active or inactive are those of the source. The calls are words filed in the database; no cut-off is given here.

What was measured:
BaF3 [1] = test: Antiproliferative activity against mouse BaF3 cells harboring EGFR L858R/T790M/C797S triple mutant assessed as inhibition of cell growth incubated for 72 hrs by CellTiter-Glo luminescent assay; type: functional, cell-based; details: BaF3, 72 h
BaF3 [2] = test: Antiproliferative activity against mouse BaF3 cells harboring EGFR Del19/T790M/C797S triple mutant assessed as inhibition of cell growth incubated for 72 hrs by CellTiter-Glo luminescent assay; type: functional, cell-based; details: BaF3, 72 h
NCI-H1975 [3] = test: Antiproliferative activity against human NCI-H1975 cells harboring EGFR L858R/T790M double mutant assessed as inhibition of cell growth incubated for 72 hrs by MTT assay; type: functional, cell-based; details: NCI-H1975, 72 h
A549 = test: Antiproliferative activity against human A549 cells assessed as inhibition of cell growth incubated for 72 hrs by MTT assay; type: functional, cell-based; details: A549, 72 h
NCI-H1975 [4] = test: Antiproliferative activity against human NCI-H1975 cells harboring EGFR L858R/T790M/C797S triple mutant assessed as inhibition of cell growth incubated for 72 hrs by CellTiter-Glo luminescent assay; type: functional, cell-based; details: NCI-H1975, 72 h
BaF3 [5] = test: Antiproliferative activity against mouse BaF3 cells harboring wildtype EGFR assessed as inhibition of cell growth incubated for 72 hrs by CellTiter-Glo luminescent assay; type: functional, cell-based; details: BaF3, 72 h
NCI-H1975 [6] = test: Antiproliferative activity against human NCI-H1975 cells harboring EGFR L858R/T790M/C797S triple mutant assessed as inhibition of cell growth incubated for 72 hrs in presence of osimertinib by CellTiter-Glo luminescent assay; type: functional, cell-based; details: NCI-H1975, 72 h
[7] = Antiproliferative activity against human BEAS-2B cells assessed as inhibition of cell growth; type: toxicity, cell-based
NCI-H1975 [8] = test: Induction of apoptosis in human NCI-H1975 cells harboring EGFR L858R/T790M/C797S triple mutant assessed as viable cells at 0.4 uM incubated for 48 hrs by Annexin V-FITC/PI staining based flow cytometric analysis (reference value: 98.3 %); type: functional; details: read-out: Activity
NCI-H1975 [9] = test: Induction of apoptosis in human NCI-H1975 cells harboring EGFR L858R/T790M/C797S triple mutant assessed as early apoptotic cells at 0.4 uM incubated for 48 hrs by Annexin V-FITC/PI staining based flow cytometric analysis (reference value: 0.39 %); type: functional
NCI-H1975 [10] = test: Induction of apoptosis in human NCI-H1975 cells harboring EGFR L858R/T790M/C797S triple mutant assessed as late apoptotic cells at 0.4 uM incubated for 48 hrs by Annexin V-FITC/PI staining based flow cytometric analysis (reference value: 0.89 %); type: functional
NCI-H1975 [11] = test: Induction of apoptosis in human NCI-H1975 cells harboring EGFR L858R/T790M/C797S triple mutant assessed as necrotic cells at 0.4 uM incubated for 48 hrs by Annexin V-FITC/PI staining based flow cytometric analysis (reference value: 0.42 %); type: functional
NCI-H1975 [12] = test: Induction of apoptosis in human NCI-H1975 cells harboring EGFR L858R/T790M/C797S triple mutant assessed as viable cells at 0.8 uM incubated for 48 hrs by Annexin V-FITC/PI staining based flow cytometric analysis (reference value: 98.3 %); type: functional; details: read-out: Activity
NCI-H1975 [13] = test: Induction of apoptosis in human NCI-H1975 cells harboring EGFR L858R/T790M/C797S triple mutant assessed as early apoptotic cells at 0.8 uM incubated for 48 hrs by Annexin V-FITC/PI staining based flow cytometric analysis (reference value: 0.39 %); type: functional
NCI-H1975 [14] = test: Induction of apoptosis in human NCI-H1975 cells harboring EGFR L858R/T790M/C797S triple mutant assessed as late apoptotic cells at 0.8 uM incubated for 48 hrs by Annexin V-FITC/PI staining based flow cytometric analysis (reference value: 0.89 %); type: functional
NCI-H1975 [15] = test: Induction of apoptosis in human NCI-H1975 cells harboring EGFR L858R/T790M/C797S triple mutant assessed as necrotic cells at 0.8 uM incubated for 48 hrs by Annexin V-FITC/PI staining based flow cytometric analysis (reference value: 0.42 %); type: functional
NCI-H1975 [16] = test: Induction of apoptosis in human NCI-H1975 cells harboring EGFR L858R/T790M/C797S triple mutant assessed as viable cells at 1.5 uM incubated for 48 hrs by Annexin V-FITC/PI staining based flow cytometric analysis (reference value: 98.3 %); type: functional; details: read-out: Activity
NCI-H1975 [17] = test: Induction of apoptosis in human NCI-H1975 cells harboring EGFR L858R/T790M/C797S triple mutant assessed as early apoptotic cells at 1.5 uM incubated for 48 hrs by Annexin V-FITC/PI staining based flow cytometric analysis (reference value: 0.39 %); type: functional
NCI-H1975 [18] = test: Induction of apoptosis in human NCI-H1975 cells harboring EGFR L858R/T790M/C797S triple mutant assessed as late apoptotic cells at 1.5 uM incubated for 48 hrs by Annexin V-FITC/PI staining based flow cytometric analysis (reference value: 0.89 %); type: functional
NCI-H1975 [19] = test: Induction of apoptosis in human NCI-H1975 cells harboring EGFR L858R/T790M/C797S triple mutant assessed as necrotic cells at 1.5 uM incubated for 48 hrs by Annexin V-FITC/PI staining based flow cytometric analysis (reference value: 0.42 %); type: functional
NCI-H1975 [20] = test: Induction of cell cycle arrest in human NCI-H1975 cells harboring EGFR L858R/T790M/C797S triple mutant at 0.4 to 1.5 uM incubated for 48 hrs by flow cytometric analysis; type: functional, cell-based; details: dose 0.4-1.5 µM

| Structure (SMILES) | IC50 (BaF3 [1]) | IC50 (BaF3 [2]) | IC50 (NCI-H1975 [3]) | IC50 (A549) | IC50 (NCI-H1975 [4]) | further results |
| --- | --- | --- | --- | --- | --- | --- |
| Nc1nccc(Nc2ccc(NC(=O)C(c3ccccc3)N3Cc4ccc(-c5ccc(N6CCNCC6)cc5)cc4C3=O)cc2)n1 (configuration not stated) | 1280 nM | 1210 nM | 2930 nM | 4020 nM | 1640 nM | – |
| CN1CCN(c2ccc(-c3ccc4c(c3)CN([C@H](C(=O)Nc3ccc(Nc5ccnc(N)n5)cc3)c3ccccc3)C4=O)cc2)CC1 | 720 nM | 750 nM | 2820 nM | 7180 nM | 1640 nM | IC50 (BaF3 [5]): 450 nM |
| O=C(Nc1nccs1)[C@@H](c1cc(F)ccc1O)N1Cc2ccc(-c3ccc(N4CCNCC4)cc3)cc2C1=O | – | – | – | – | 3660 nM | IC50 (NCI-H1975 [6]): 1250 nM |
| Nc1nccc(Nc2ccc(NC(=O)C(c3ccccc3)N3Cc4cc(-c5ccc(N6CCNCC6)cc5)ccc4C3=O)cc2)n1 (configuration not stated) | 970 nM | 690 nM | 3200 nM | 530 nM | 1490 nM | – |
| Nc1nccc(Nc2ccc(NC(=O)C(c3ccccc3)N3Cc4ccccc4C3=O)cc2)n1 (configuration not stated) | > 10000 nM | > 10000 nM | > 20000 nM | > 20000 nM | > 10000 nM | – |
| Nc1nccc(Nc2ccc(NC(=O)C(c3ccccc3)N3Cc4cc(-c5ccc(N6CCNCC6)cc5)ccc4C3=O)cc2F)n1 (configuration not stated) | 1420 nM | 1720 nM | 7800 nM | 4520 nM | 1530 nM | – |
| C=CC(=O)Nc1cc(Nc2nccc(-c3cn(C)c4ccccc34)n2)c(OC)cc1N(C)CCN(C)C [OSIMERTINIB] | 1120 nM | 750 nM | […] | […] | […] | IC50 (BaF3 [5]): 9 nM |
| Nc1nccc(Nc2ccc(NC(=O)C(c3ccccc3)N3Cc4cc(-c5ccc(N6CCOCC6)cc5)ccc4C3=O)cc2)n1 (racemic) | 1960 nM | 1960 nM | > 20000 nM | > 20000 nM | – | – |
| Nc1nccc(Nc2cccc(NC(=O)C(c3ccccc3)N3Cc4cc(-c5ccc(N6CCNCC6)cc5)ccc4C3=O)c2)n1 (configuration not stated) | 1460 nM | 890 nM | 3200 nM | 2210 nM | 4160 nM | – |
| CCN(CC)c1ccc(-c2ccc3c(c2)CN(C(C(=O)Nc2ccc(Nc4ccnc(N)n4)cc2)c2ccccc2)C3=O)cc1 (racemic) | 1190 nM | 1190 nM | 11600 nM | 15700 nM | – | – |
| Nc1nccc(Nc2ccc(NC(=O)C(c3ccccc3)N3Cc4cc(-c5ccc(N6CCNCC6)cc5)ccc4C3=O)c(Cl)c2)n1 (configuration not stated) | 1240 nM | 860 nM | 4400 nM | 3960 nM | 2320 nM | – |

The next lines start with results.

| IC50 (BaF3 [1]) | IC50 (BaF3 [2]) | IC50 (NCI-H1975 [3]) | IC50 (A549) | IC50 (NCI-H1975 [4]) | Structure (SMILES) | further results |
| --- | --- | --- | --- | --- | --- | --- |
| 2550 nM | 2450 nM | 9950 nM | 5130 nM | – | O=C(Nc1ccc(Nc2ccncn2)cc1)C(c1ccccc1)N1Cc2cc(-c3ccc(N4CCNCC4)cc3)ccc2C1=O (configuration not stated) | – |
| 930 nM | – | 4750 nM | 3970 nM | 2690 nM | Cc1nccc(Nc2ccc(NC(=O)C(c3ccccc3)N3Cc4cc(-c5ccc(N6CCNCC6)cc5)ccc4C3=O)cc2)n1 (configuration not stated) | – |
| 690 nM | 620 nM | – | 12200 nM | 1650 nM | CN1CCN(c2ccc(-c3ccc4c(c3)CN(C(C(=O)Nc3ccc(Nc5ccnc(N)n5)cc3)c3ccccc3)C4=O)cc2)CC1 (racemic) | IC50 (BaF3 [5]): 1500 nM |
| 480 nM | – | 3600 nM | 4880 nM | 2650 nM | COc1nccc(Nc2ccc(NC(=O)C(c3ccccc3)N3Cc4cc(-c5ccc(N6CCNCC6)cc5)ccc4C3=O)cc2)n1 (configuration not stated) | – |
| 420 nM | 410 nM | 2950 nM | 5140 nM | 820 nM | CN1CCN(c2ccc(-c3ccc4c(c3)CN([C@@H](C(=O)Nc3ccc(Nc5ccnc(N)n5)cc3)c3ccccc3)C4=O)cc2)CC1 | IC50 (BaF3 [5]): 410 nM; IC50 [7]: 5120 nM; viability at 0.4 µM (NCI-H1975 [8]): 97.3%; Activity (NCI-H1975 [9]): 0.59%; Activity (NCI-H1975 [10]): 1.64%; Activity (NCI-H1975 [11]): 0.51%; viability at 0.8 µM (NCI-H1975 [12]): 86.7%; Activity (NCI-H1975 [13]): 1.45%; Activity (NCI-H1975 [14]): 11.16%; Activity (NCI-H1975 [15]): 0.69%; viability at 1.5 µM (NCI-H1975 [16]): 85.3%; Activity (NCI-H1975 [17]): 1.83%; Activity (NCI-H1975 [18]): 12.15%; Activity (NCI-H1975 [19]): 0.73%; Activity (NCI-H1975 [20]): inactive |
| 1040 nM | – | 3820 nM | 5200 nM | 2700 nM | O=C(Nc1ccc(Nc2ccncc2)cc1)C(c1ccccc1)N1Cc2cc(-c3ccc(N4CCNCC4)cc3)ccc2C1=O (configuration not stated) | – |
| 1440 nM | 860 nM | 3320 nM | 4200 nM | 1550 nM | Nc1nccc(Nc2ccc(NC(=O)C(c3ccccc3)N3Cc4cc(-c5ccc(N6CCNCC6)cc5)ccc4C3=O)cc2Cl)n1 (configuration not stated) | – |
| 2080 nM | 2580 nM | > 20000 nM | > 20000 nM | – | Nc1nccc(Nc2ccc(NC(=O)C(c3ccccc3)N3Cc4cc(-c5ccc(N6CCCCC6)cc5)ccc4C3=O)cc2)n1 (racemic) | – |
| > 10000 nM | > 10000 nM | > 20000 nM | > 20000 nM | > 10000 nM | Nc1cc(Nc2ccc(NC(=O)C(c3ccccc3)N3Cc4ccccc4C3=O)cc2)ncn1 (configuration not stated) | – |
| 3960 nM | 1520 nM | > 20000 nM | > 20000 nM | > 10000 nM | Nc1cc(Nc2ccc(NC(=O)C(c3ccccc3)N3Cc4cc(-c5ccc(N6CCNCC6)cc5)ccc4C3=O)cc2)ncn1 (configuration not stated) | – |
| 1430 nM | 720 nM | 2440 nM | 1780 nM | 1430 nM | Nc1nccc(Nc2ccc(NC(=O)C(c3ccccc3)N3Cc4cc(-c5ccc(N6CCNCC6)cc5)ccc4C3=O)c(F)c2)n1 (configuration not stated) | – |
